Values of other authors as cited in US20250275939A1, “CO-CRYSTALS” (UNIVERSITY OF IOWA RESEARCH FOUNDATION, priority 2024, published 2025).
Like-named read-outs stand apart in the source and are kept apart here. Blank lines part the entries; values can stand above or below the molecule they belong to. Peptide text beside a SMILES is read from it.

Legend:
[1] = humans, after a single oral dose
[2] = humans, adults and children
[3] = in vivo
[4] = in vivo; remark: listed apart in the source

oral bioavailability [1]: ~2%
Structure (SMILES): O=c1c(O)c(-c2ccc(O)c(O)c2)oc2cc(O)cc(O)c12 [quercetin, Quercetin]

acceptable daily intake ([2]; Europe): 40 mg/kg bodyweight
acceptable daily intake ([2]; United States): 50 mg/kg bodyweight
Structure (SMILES): COC(=O)[C@H](Cc1ccccc1)NC(=O)[C@@H](N)CC(=O)O [aspartame, Aspartame] (H-Asp-Phe-OMe)

penetration of the blood-brain barrier [3]: can penetrate the blood-brain barrier
Structure (SMILES): Cc1nc(C)c(C)nc1C [TMP, tetramethyl pyrazine]

Structure (SMILES): C1N2CN3CN1CN(C2)C3 [Methenamine]
serum enzyme elevations / clinically apparent acute liver injury [4]: has not been linked to serum enzyme elevations or to instances of clinically apparent acute liver injury
